Literature values, collected in patent US20100241197A1, “METHODS OF USING NITROXIDES IN CONJUNCTION WITH PHOTOSENSITIZERS AND SONOSENSITIZERS” (Mitos Pharmaceuticals, Inc., priority 2003, published 2010).
Where two headings read alike, the source gives them in different places.

Key:
[1] = relative to PHOTOFRIN
[2] = not given; remark: listed apart in the source
[3] = test system: tumor; details: in vivo

## Oc1cccc(-c2c3nc(c(-c4cccc(O)c4)c4ccc([nH]4)c(-c4cccc(O)c4)c4nc(c(-c5cccc(O)c5)c5ccc2[nH]5)CC4)C=C3)c1 [m-THPC, Meta-tetra hydroxyphenyl chlorin]
[1]
  skin photosensitivity compared with PHOTOFRIN: only slightly less

## C=Cc1c(C)c2cc3nc(c(CC(=O)N[C@@H](CC(=O)[O-])C(=O)[O-])c4[nH]c(cc5nc(cc1[nH]2)C(C)=C5CC)c(C)c4C(=O)[O-])[C@@H](CCC(=O)[O-])[C@@H]3C.[Na+].[Na+].[Na+].[Na+] [Npe6, Mono-L-aspartyl chlorin e6]
Absorbance peak at 654 nm
  extinction coefficient: 40 000 M-1 cm-1
[2]
  solubility in water / aqueous solutions: highly water soluble

## CCOC(=O)C1=Cc2c3nc(cc4nc(cc5[n-]c(cc6[n-]c2c(C)c6CC)c(C)c5CC)C(C)=C4CC)[C@@H](C)[C@]13CC.[Cl-].[Cl-].[Sn] (racemic) [SnET2, tin etiopurpurin]
At 700 nm
  extinction coefficient: 40 000 M-1 cm-1

## benzoporphyrin derivative mono-acid A [BPD]
Absorbance peak at 650 nm
  extinction coefficient: 34 000 M-1 cm-1
[3]
  tumor accumulation: rapid tumor accumulation
